Measurements reported in ChEMBL document CHEMBL1201862, “PubChem BioAssay data set” (2004).
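Exposure lasted 48 hours, with cells grown in 96-well plates and compounds tested at five concentrations. The concentration for 50% growth inhibition is given as GI50.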 The source made the active and inactive calls. Rule as the data show it: active = GI50 up to about 1.1 µM and inactive = higher.

What was measured:
Assay in all cases: NCI anticancer screen, dose series, 48 h
786-0 = system: 786-0
A498 = system: A498
A549 = system: A549
ACHN = system: ACHN
BT-549 = system: BT-549
CAKI-1 = system: CAKI-1
COLO 205 = system: COLO 205
DU-145 = system: DU-145
EKVX = system: EKVX
HCT-116 = system: HCT-116
HCT-15 = system: HCT-15
HL-60 = system: HL-60
HOP-62 = system: HOP-62
HT-29 = system: HT-29
Hs-578T = system: Hs-578T
IGROV-1 = system: IGROV-1
K562 = system: K562
KM12 = system: KM12
LOX IMVI = system: LOX IMVI
M14 = system: M14
MCF7 = system: MCF7
MDA-MB-231 = system: MDA-MB-231
MDA-MB-435 = system: MDA-MB-435
MDA-N = system: MDA-N
MOLT-4 = system: MOLT-4
Malme-3M = system: Malme-3M
NCI-H226 = system: NCI-H226
NCI-H23 = system: NCI-H23
NCI-H460 = system: NCI-H460
NCI-H522 = system: NCI-H522
NCI/ADR-RES = system: NCI/ADR-RES
OVCAR-3 = system: OVCAR-3
OVCAR-4 = system: OVCAR-4
OVCAR-5 = system: OVCAR-5
OVCAR-8 = system: OVCAR-8
PC-3 = system: PC-3
RPMI-8226 = system: RPMI-8226
RXF 393 = system: RXF 393
SF-268 = system: SF-268
SF-295 = system: SF-295
SF-539 = system: SF-539
SK-MEL-28 = system: SK-MEL-28
SK-MEL-2 = system: SK-MEL-2
SK-MEL-5 = system: SK-MEL-5
SK-OV-3 = system: SK-OV-3
SN12C = system: SN12C
SNB-19 = system: SNB-19
SNB-75 = system: SNB-75
SW-620 = system: SW-620
T47D = system: T47D
TK-10 = system: TK-10
U-251 = system: U-251
UACC-257 = system: UACC-257
UACC-62 = system: UACC-62
UO-31 = system: UO-31
CCRF-CEM = system: CCRF-CEM
HCC 2998 = system: HCC 2998
HOP-92 = system: HOP-92
SR = system: SR

O=C(O)C1C2OC(C(Br)C2Br)C1C(=O)O (stereo not given) was tested, and the GI50 (786-0) was > 100 µM (inactive), the GI50 (A498) was > 100 µM (inactive) and the GI50 (A549) was > 100 µM (inactive). The GI50 (ACHN) was > 100 µM (inactive), the GI50 (BT-549) was > 100 µM (inactive) and the GI50 (CAKI-1) was > 100 µM (inactive). The GI50 (COLO 205) was > 100 µM (inactive), the GI50 (DU-145) was > 100 µM (inactive) and the GI50 (EKVX) was > 100 µM (inactive). The GI50 (HCT-116) was > 100 µM (inactive), the GI50 (HCT-15) was over 100 µM and the GI50 (HL-60) was > 100 µM (inactive). For the same compound, the GI50 (HOP-62) was > 100 µM (inactive), the GI50 (HT-29) was > 100 µM (inactive) and the GI50 (Hs-578T) was 24.7 µM (inactive). For the same compound, the GI50 (IGROV-1) was > 100 µM (inactive), the GI50 (K562) was > 100 µM (inactive) and the GI50 (KM12) was > 100 µM (inactive). The GI50 (LOX IMVI) was > 100 µM (inactive), the GI50 (M14) was > 100 µM (inactive) and the GI50 (MCF7) was > 100 µM (inactive). The GI50 (MDA-MB-231) was > 100 µM (inactive), the GI50 (MDA-MB-435) was > 100 µM (inactive) and the GI50 (MDA-N) was > 100 µM (inactive). For the same compound, the GI50 (MOLT-4) was > 100 µM (inactive), the GI50 (Malme-3M) was > 100 µM (inactive) and the GI50 (NCI-H226) was > 100 µM (inactive). For the same compound, the GI50 (NCI-H23) was > 100 µM (inactive), the GI50 (NCI-H460) was > 100 µM (inactive) and the GI50 (NCI-H522) was > 100 µM (inactive). For the same compound, the GI50 (NCI/ADR-RES) was > 100 µM (inactive), the GI50 (OVCAR-3) was > 100 µM (inactive) and the GI50 (OVCAR-4) was > 100 µM (inactive). The GI50 (OVCAR-5) was > 100 µM (inactive), the GI50 (OVCAR-8) was > 100 µM (inactive) and the GI50 (PC-3) was > 100 µM (inactive). The GI50 (RPMI-8226) was > 100 µM (inactive), the GI50 (RXF 393) was > 100 µM (inactive) and the GI50 (SF-268) was > 100 µM (inactive). The GI50 (SF-295) was > 100 µM (inactive), the GI50 (SF-539) was > 100 µM (inactive) and the GI50 (SK-MEL-28) was > 100 µM (inactive). For the same compound, the GI50 (SK-MEL-2) was > 100 µM (inactive), the GI50 (SK-MEL-5) was > 100 µM (inactive) and the GI50 (SK-OV-3) was > 100 µM (inactive). For the same compound, the GI50 (SN12C) was > 100 µM (inactive), the GI50 (SNB-19) was > 100 µM (inactive) and the GI50 (SNB-75) was > 100 µM (inactive). The GI50 (SW-620) was > 100 µM (inactive), the GI50 (T47D) was > 100 µM (inactive) and the GI50 (TK-10) was > 100 µM (inactive). The GI50 (U-251) was > 100 µM (inactive), the GI50 (UACC-257) was > 100 µM (inactive) and the GI50 (UACC-62) was > 100 µM (inactive). The GI50 (UO-31) was > 100 µM (inactive).
With CN(C(=O)c1ccc(Cl)s1)C(=S)N(C)C(=O)c1ccc(Cl)s1 the GI50 (786-0) was > 10 µM (inactive), the GI50 (A498) was > 10 µM (inactive) and the GI50 (A549) was > 10 µM (inactive). For the same compound, the GI50 (ACHN) was > 10 µM (inactive), the GI50 (BT-549) was > 10 µM (inactive) and the GI50 (CAKI-1) was > 10 µM (inactive). For the same compound, the GI50 (CCRF-CEM) was > 10 µM (inactive), the GI50 (COLO 205) was > 10 µM (inactive) and the GI50 (DU-145) was > 10 µM (inactive). For the same compound, the GI50 (EKVX) was > 10 µM (inactive), the GI50 (HCC 2998) was > 10 µM (inactive) and the GI50 (HCT-116) was > 10 µM (inactive). The GI50 (HCT-15) was over 10 µM, the GI50 (HL-60) was > 10 µM (inactive) and the GI50 (HOP-62) was > 10 µM (inactive). For the same compound, the GI50 (HOP-92) was > 10 µM (inactive), the GI50 (HT-29) was > 10 µM (inactive) and the GI50 (Hs-578T) was > 10 µM (inactive). The GI50 (IGROV-1) was > 10 µM (inactive), the GI50 (K562) was > 10 µM (inactive) and the GI50 (KM12) was > 10 µM (inactive). The GI50 (LOX IMVI) was > 10 µM (inactive), the GI50 (M14) was > 10 µM (inactive) and the GI50 (MCF7) was > 10 µM (inactive). The GI50 (MDA-MB-231) was > 10 µM (inactive), the GI50 (MDA-N) was > 10 µM (inactive) and the GI50 (MOLT-4) was > 10 µM (inactive). The GI50 (Malme-3M) was > 10 µM (inactive), the GI50 (NCI-H226) was > 10 µM (inactive) and the GI50 (NCI-H23) was > 10 µM (inactive). The GI50 (NCI-H460) was > 10 µM (inactive), the GI50 (NCI-H522) was > 10 µM (inactive) and the GI50 (NCI/ADR-RES) was > 10 µM (inactive). For the same compound, the GI50 (OVCAR-3) was > 10 µM (inactive), the GI50 (OVCAR-4) was > 10 µM (inactive) and the GI50 (OVCAR-5) was > 10 µM (inactive). The GI50 (OVCAR-8) was > 10 µM (inactive), the GI50 (PC-3) was > 10 µM (inactive) and the GI50 (RPMI-8226) was > 10 µM (inactive). For the same compound, the GI50 (RXF 393) was > 10 µM (inactive), the GI50 (SF-268) was > 10 µM (inactive) and the GI50 (SF-295) was > 10 µM (inactive). For the same compound, the GI50 (SF-539) was > 10 µM (inactive), the GI50 (SK-MEL-28) was > 10 µM (inactive) and the GI50 (SK-MEL-2) was > 10 µM (inactive). The GI50 (SK-MEL-5) was > 10 µM (inactive), the GI50 (SK-OV-3) was > 10 µM (inactive) and the GI50 (SN12C) was > 10 µM (inactive). The GI50 (SNB-19) was > 10 µM (inactive), the GI50 (SNB-75) was > 10 µM (inactive) and the GI50 (SR) was > 10 µM (inactive). The GI50 (SW-620) was > 10 µM (inactive), the GI50 (T47D) was > 10 µM (inactive) and the GI50 (TK-10) was > 10 µM (inactive). The GI50 (U-251) was > 10 µM (inactive), the GI50 (UACC-257) was > 10 µM (inactive) and the GI50 (UACC-62) was > 10 µM (inactive). The GI50 (UO-31) was > 10 µM (inactive).
Cc1ccc(C(=O)c2[nH]c(Nc3cc(C)ccn3)c(C(=S)Nc3ccccc3)c2N)cc1 was tested, and the GI50 (786-0) was > 100 µM (inactive), the GI50 (A498) was > 100 µM (inactive) and the GI50 (A549) was > 100 µM (inactive). The GI50 (ACHN) was > 100 µM (inactive), the GI50 (BT-549) was > 100 µM (inactive) and the GI50 (CAKI-1) was > 100 µM (inactive). For the same compound, the GI50 (CCRF-CEM) was > 100 µM (inactive), the GI50 (COLO 205) was > 100 µM (inactive) and the GI50 (DU-145) was > 100 µM (inactive). For the same compound, the GI50 (EKVX) was > 100 µM (inactive), the GI50 (HCC 2998) was > 100 µM (inactive) and the GI50 (HCT-116) was > 100 µM (inactive). The GI50 (HCT-15) was over 100 µM, the GI50 (HL-60) was > 100 µM (inactive) and the GI50 (HOP-62) was > 100 µM (inactive). The GI50 (HOP-92) was > 100 µM (inactive), the GI50 (HT-29) was > 100 µM (inactive) and the GI50 (Hs-578T) was > 100 µM (inactive). For the same compound, the GI50 (IGROV-1) was > 100 µM (inactive), the GI50 (K562) was > 100 µM (inactive) and the GI50 (KM12) was > 100 µM (inactive). The GI50 (LOX IMVI) was > 100 µM (inactive), the GI50 (M14) was > 100 µM (inactive) and the GI50 (MCF7) was 87.5 µM (inactive). The GI50 (MDA-MB-231) was > 100 µM (inactive), the GI50 (MDA-MB-435) was > 100 µM (inactive) and the GI50 (MDA-N) was > 100 µM (inactive). For the same compound, the GI50 (MOLT-4) was > 100 µM (inactive), the GI50 (Malme-3M) was > 100 µM (inactive) and the GI50 (NCI-H226) was > 100 µM (inactive). For the same compound, the GI50 (NCI-H23) was > 100 µM (inactive), the GI50 (NCI-H460) was > 100 µM (inactive) and the GI50 (NCI-H522) was > 100 µM (inactive). The GI50 (NCI/ADR-RES) was > 100 µM (inactive), the GI50 (OVCAR-3) was > 100 µM (inactive) and the GI50 (OVCAR-4) was > 100 µM (inactive). The GI50 (OVCAR-5) was > 100 µM (inactive), the GI50 (OVCAR-8) was > 100 µM (inactive) and the GI50 (RXF 393) was > 100 µM (inactive). For the same compound, the GI50 (SF-268) was > 100 µM (inactive), the GI50 (SF-295) was > 100 µM (inactive) and the GI50 (SF-539) was > 100 µM (inactive). For the same compound, the GI50 (SK-MEL-28) was > 100 µM (inactive), the GI50 (SK-MEL-2) was > 100 µM (inactive) and the GI50 (SK-MEL-5) was > 100 µM (inactive). The GI50 (SK-OV-3) was > 100 µM (inactive), the GI50 (SN12C) was > 100 µM (inactive) and the GI50 (SNB-19) was > 100 µM (inactive). For the same compound, the GI50 (SNB-75) was > 100 µM (inactive), the GI50 (SR) was > 100 µM (inactive) and the GI50 (SW-620) was > 100 µM (inactive). For the same compound, the GI50 (T47D) was > 100 µM (inactive), the GI50 (TK-10) was > 100 µM (inactive) and the GI50 (U-251) was > 100 µM (inactive). The GI50 (UACC-257) was > 100 µM (inactive), the GI50 (UACC-62) was > 100 µM (inactive) and the GI50 (UO-31) was > 100 µM (inactive).
